Test results from ChEMBL document CHEMBL1144455, “A small molecule-kinase interaction map for clinical kinase inhibitors” (Nat Biotechnol, 2005).

Experiments:
[1] = target: Tyrosine-protein kinase HCK (Homo sapiens, UniProt P08631)
[2] = target: T1, Serine/threonine-protein kinase PLK4 (Homo sapiens, UniProt O00444)
T1 sequence (O00444 whole entry): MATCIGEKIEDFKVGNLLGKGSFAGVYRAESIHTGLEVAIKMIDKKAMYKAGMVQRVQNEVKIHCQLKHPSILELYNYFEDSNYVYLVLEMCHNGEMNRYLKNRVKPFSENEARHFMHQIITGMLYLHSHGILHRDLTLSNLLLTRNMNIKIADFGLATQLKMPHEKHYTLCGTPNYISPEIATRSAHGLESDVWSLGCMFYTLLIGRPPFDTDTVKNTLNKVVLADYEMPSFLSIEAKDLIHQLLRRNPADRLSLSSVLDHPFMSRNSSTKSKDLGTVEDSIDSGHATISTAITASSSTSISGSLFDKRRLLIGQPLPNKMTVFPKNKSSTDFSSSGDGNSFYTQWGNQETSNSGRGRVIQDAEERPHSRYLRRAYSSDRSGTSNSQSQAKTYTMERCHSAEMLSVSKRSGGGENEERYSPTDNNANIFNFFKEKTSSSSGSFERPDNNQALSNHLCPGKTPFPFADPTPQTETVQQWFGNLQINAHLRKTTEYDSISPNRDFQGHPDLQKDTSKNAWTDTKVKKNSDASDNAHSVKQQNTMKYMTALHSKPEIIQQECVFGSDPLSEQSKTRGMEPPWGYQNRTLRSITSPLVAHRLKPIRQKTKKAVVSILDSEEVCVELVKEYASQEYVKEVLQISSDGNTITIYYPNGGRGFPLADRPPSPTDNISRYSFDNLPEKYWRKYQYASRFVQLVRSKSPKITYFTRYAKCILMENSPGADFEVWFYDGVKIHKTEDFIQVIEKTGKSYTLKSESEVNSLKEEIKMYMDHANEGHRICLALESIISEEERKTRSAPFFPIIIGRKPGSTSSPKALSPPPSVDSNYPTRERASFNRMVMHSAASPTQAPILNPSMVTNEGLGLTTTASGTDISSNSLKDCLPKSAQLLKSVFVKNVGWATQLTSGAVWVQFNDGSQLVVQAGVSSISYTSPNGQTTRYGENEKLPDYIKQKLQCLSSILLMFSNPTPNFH

Insulin receptor = Insulin receptor (Homo sapiens, UniProt P06213)
Chain of Insulin receptor (P06213 28-758 limits assumed): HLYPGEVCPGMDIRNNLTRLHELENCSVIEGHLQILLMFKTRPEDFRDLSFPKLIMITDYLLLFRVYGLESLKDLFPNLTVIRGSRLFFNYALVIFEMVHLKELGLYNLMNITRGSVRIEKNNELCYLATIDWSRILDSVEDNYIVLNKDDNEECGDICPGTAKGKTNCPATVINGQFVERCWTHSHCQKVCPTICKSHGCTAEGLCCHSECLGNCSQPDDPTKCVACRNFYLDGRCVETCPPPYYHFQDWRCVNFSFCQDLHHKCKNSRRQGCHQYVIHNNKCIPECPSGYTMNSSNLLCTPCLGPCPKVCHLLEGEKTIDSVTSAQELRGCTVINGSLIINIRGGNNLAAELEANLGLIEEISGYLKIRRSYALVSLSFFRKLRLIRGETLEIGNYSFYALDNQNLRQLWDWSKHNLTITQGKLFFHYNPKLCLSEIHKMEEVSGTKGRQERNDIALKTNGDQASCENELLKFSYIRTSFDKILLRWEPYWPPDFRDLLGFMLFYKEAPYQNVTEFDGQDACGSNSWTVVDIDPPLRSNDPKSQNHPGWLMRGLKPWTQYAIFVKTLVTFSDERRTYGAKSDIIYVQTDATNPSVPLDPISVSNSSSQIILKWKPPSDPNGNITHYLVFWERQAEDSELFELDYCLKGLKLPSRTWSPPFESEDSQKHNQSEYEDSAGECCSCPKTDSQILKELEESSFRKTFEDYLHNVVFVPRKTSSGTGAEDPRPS
Chain of Insulin receptor (P06213 763-1382 limits assumed): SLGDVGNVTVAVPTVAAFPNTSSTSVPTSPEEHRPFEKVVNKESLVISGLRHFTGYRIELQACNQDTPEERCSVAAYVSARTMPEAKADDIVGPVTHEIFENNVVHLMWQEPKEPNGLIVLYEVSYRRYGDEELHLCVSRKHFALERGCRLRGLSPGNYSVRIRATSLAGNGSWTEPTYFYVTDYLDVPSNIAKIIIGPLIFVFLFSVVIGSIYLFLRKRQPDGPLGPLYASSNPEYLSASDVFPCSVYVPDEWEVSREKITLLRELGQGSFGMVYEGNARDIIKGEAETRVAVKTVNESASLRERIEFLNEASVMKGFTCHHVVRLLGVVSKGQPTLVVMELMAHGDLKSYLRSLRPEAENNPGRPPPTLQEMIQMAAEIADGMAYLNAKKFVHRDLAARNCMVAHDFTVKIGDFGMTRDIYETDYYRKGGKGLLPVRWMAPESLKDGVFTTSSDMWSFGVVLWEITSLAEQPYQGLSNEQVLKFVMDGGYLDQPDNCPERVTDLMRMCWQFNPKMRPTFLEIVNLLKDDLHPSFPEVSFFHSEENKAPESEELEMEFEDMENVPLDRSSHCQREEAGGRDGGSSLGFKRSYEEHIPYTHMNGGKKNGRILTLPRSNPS

[3] = target: Cyclin-dependent kinase 2 (Homo sapiens, UniProt P24941)
[4] = target: Death-associated protein kinase 2 (Homo sapiens, UniProt Q9UIK4)
Chain of Death-associated protein kinase 2 (Q9UIK4 whole entry): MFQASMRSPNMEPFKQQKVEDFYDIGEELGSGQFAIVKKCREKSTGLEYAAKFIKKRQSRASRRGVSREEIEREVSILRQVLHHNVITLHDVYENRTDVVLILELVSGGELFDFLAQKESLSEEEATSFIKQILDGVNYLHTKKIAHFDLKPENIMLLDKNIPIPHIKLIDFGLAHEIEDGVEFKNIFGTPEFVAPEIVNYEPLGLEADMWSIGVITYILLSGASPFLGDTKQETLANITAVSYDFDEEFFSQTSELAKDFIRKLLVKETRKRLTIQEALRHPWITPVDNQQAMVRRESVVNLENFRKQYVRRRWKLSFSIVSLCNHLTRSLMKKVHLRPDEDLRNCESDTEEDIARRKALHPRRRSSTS

[5] = target: Myosin light chain kinase 2, skeletal/cardiac muscle (Homo sapiens, UniProt Q9H1R3)
Chain of Myosin light chain kinase 2, skeletal/cardiac muscle (Q9H1R3 whole entry): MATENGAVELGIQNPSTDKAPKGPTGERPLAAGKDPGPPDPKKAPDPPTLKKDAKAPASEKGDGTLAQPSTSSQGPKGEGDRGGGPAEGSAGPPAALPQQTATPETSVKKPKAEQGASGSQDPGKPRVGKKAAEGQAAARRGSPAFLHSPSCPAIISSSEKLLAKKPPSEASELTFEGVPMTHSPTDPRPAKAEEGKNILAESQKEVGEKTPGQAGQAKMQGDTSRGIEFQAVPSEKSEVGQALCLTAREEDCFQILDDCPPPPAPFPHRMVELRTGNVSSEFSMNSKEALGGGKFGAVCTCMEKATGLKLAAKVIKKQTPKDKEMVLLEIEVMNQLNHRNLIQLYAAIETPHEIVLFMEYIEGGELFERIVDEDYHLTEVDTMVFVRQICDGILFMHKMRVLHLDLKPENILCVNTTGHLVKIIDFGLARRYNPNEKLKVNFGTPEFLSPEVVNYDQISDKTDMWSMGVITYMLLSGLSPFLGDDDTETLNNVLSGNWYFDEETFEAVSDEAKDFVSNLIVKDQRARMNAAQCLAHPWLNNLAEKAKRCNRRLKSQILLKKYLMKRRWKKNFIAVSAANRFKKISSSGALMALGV

[6] = target: Serine/threonine-protein kinase PAK 4 (Homo sapiens, UniProt O96013)
Chain of Serine/threonine-protein kinase PAK 4 (O96013 whole entry): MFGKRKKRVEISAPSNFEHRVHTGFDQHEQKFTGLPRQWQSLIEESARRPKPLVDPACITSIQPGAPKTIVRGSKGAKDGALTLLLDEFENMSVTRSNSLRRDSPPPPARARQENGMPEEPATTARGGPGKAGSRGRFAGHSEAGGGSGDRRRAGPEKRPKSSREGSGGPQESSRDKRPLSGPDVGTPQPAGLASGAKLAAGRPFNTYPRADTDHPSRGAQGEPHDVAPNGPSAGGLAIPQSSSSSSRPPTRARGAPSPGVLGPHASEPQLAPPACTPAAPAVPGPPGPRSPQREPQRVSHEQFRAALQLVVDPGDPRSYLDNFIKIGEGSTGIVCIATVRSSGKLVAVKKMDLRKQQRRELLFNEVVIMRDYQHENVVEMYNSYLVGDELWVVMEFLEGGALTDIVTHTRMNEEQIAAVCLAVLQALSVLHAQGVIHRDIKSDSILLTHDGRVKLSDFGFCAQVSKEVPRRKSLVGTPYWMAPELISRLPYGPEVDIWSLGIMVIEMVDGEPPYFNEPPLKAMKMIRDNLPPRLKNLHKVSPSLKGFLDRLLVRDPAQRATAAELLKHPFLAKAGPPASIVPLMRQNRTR

Aurora kinase A = target: T2, Aurora kinase A (Homo sapiens, UniProt O14965)
T2 sequence (O14965 whole entry): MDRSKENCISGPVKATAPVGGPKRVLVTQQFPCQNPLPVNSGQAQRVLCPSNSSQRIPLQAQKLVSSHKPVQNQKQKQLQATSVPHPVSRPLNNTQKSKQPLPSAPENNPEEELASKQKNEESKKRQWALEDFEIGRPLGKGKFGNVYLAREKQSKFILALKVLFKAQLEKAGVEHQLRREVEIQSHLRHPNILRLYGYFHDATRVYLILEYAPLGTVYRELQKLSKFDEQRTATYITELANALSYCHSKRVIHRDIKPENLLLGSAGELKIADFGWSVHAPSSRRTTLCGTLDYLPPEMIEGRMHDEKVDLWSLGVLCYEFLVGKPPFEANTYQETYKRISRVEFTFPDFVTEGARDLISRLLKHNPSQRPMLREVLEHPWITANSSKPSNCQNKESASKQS

[7] = target: T3, Serine/threonine-protein kinase ULK3 (Mus musculus, UniProt Q3U3Q1)
T3 sequence (Q3U3Q1 whole entry): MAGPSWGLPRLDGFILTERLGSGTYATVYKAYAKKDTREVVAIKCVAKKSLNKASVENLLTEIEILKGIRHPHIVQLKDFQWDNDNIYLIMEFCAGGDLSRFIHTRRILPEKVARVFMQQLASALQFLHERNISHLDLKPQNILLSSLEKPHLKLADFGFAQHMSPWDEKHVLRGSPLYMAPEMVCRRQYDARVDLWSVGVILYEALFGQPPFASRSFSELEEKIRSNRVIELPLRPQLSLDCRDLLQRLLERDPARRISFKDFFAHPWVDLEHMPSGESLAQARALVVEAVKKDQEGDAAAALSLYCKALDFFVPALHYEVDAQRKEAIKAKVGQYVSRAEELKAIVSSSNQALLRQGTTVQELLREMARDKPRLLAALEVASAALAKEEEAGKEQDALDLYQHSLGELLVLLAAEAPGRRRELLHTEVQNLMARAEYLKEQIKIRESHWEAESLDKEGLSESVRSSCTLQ

Measured: Kd

Chain of Tyrosine-protein kinase HCK (P08631 whole entry): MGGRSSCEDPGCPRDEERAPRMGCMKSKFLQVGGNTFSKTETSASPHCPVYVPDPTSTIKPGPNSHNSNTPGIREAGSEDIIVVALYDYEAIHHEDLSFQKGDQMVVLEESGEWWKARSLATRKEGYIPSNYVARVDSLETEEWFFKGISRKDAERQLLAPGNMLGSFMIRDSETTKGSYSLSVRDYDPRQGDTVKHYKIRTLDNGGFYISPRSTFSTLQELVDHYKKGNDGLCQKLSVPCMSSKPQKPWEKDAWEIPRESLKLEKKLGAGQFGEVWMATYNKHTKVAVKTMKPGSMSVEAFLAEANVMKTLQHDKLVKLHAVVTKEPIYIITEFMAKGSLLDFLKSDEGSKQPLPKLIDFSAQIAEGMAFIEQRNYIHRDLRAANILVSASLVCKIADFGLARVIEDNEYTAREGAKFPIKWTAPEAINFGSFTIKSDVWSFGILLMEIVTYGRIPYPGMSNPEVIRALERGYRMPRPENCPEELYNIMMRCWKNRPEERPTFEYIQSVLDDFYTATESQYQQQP

C#Cc1cccc(Nc2ncnc3cc(OCCOC)c(OCCOC)cc23)c1 [ERLOTINIB]
not listed: Aurora kinase A | [7]
Not Active: all other assays above

Cc1ccc(NC(=O)c2ccc(CN3CCN(C)CC3)cc2)cc1Nc1nccc(-c2cccnc2)n1 [IMATINIB]
not listed: [2] | [3]
Not Active: all other assays above

O=c1ncn2nc(Sc3ccc(F)cc3F)ccc2c1-c1c(Cl)cccc1Cl [NEFLAMAPIMOD]
not listed: [1]
Not Active: all other assays above

CCOc1cc2ncc(C#N)c(Nc3ccc(F)c(Cl)c3)c2cc1NC(=O)/C=C/CN(C)C [PELITINIB]
not listed: [1] | [5] | [7]
Not Active: all other assays above

Oc1ccc(-c2nc(-c3ccc(F)cc3)c(-c3ccncc3)[nH]2)cc1 [SB-202190]
Not Active: all assays above

C[S+]([O-])c1ccc(-c2nc(-c3ccc(F)cc3)c(-c3ccncc3)[nH]2)cc1 (configuration not stated) [SB-203580]
Not Active: all assays above

CC[C@H](CO)Nc1nc(NCc2ccccc2)c2ncn(C(C)C)c2n1 [SELICICLIB]
not listed: [3]
Not Active: all other assays above

Oc1c2ccccc2c2c3c(cccc13)N=N2 [SP-600125]
Not Active: [1] | Insulin receptor | [5] | [6]

COc1cc2c(N3CCN(C(=O)Nc4ccc(OC(C)C)cc4)CC3)ncnc2cc1OCCCN1CCCCC1 [TANDUTINIB]
Not Active: all assays above
